Assay results reported in article PMC6627374, “Effects of the Pentapeptide P33 on Memory and Synaptic Plasticity in APP/PS1 Transgenic Mice: A Novel Mechanism Presenting the Protein Fe65 as a Target” (International Journal of Molecular Sciences, 2019).
Where a SMILES comes first, the peptide text is derived from it.

Key:
[1] = tested on: synaptophysin (SYN); assay: Western blot, synaptophysin (SYN) level; format: in vivo, mouse; conditions: four groups WT/APP/PS1, vehicle/P33; 5 mg∙kg^−1 i.p., six months
Procedure: For this study, three-month-old male and female WT and APP/PS1 mice (n = 37) were used. Four groups were defined: WT-vehicle (physiological saline) (male n = 4; female n = 6), WT-P33 (male n = 6; female n = 5), APP/PS1-vehicle (male n = 3; female n = 5), and APP/PS1-P33 (male n = 6; female n = 2). Animals were subjected to intraperitoneal (i.p.) injections of P33 (5 mg∙kg^−1) for five days per week, over a course of six months. The mice were kept in groups under constant temperature (23 ± 0.5 °C), lighting (12-h/12-h light/dark cycle, lights on at 7:00 a.m.), and humidity (~50%). Standard mouse chow and tap water were supplied ad libitum. All behavioral experiments were performed in the light period. […]
Protein samples, identically prepared as for ELISA, (20 μg/lane) were separated on a 15% SDS-polyacrylamide gel (80 V, 20 min at RT; than 130 V, 60 min at RT) or on a 4–12% NuPAGE® Bis-Tris Gel (Thermo Fischer Scientific, Waltham, MA, USA, 200V, 30 min at RT) and transferred to a nitrocellulose membrane (Whatman, Maidstone, UK, 450 mA, 90 min at 4 °C). […] Membranes were scanned with a Bio-Rad Molecular Imager® ChemiDoc™ XRS+Imaging System (Bio-Rad Laboratories, Hercules, CA, USA) and evaluated with the Image Lab 4.0 software.
The results of spine density and immunohistochemistry experiments were calculated with one-way ANOVA followed by Fisher’s LSD post hoc tests. […]

[2] = tested on: GFAP-positive astrocytes; assay: GFAP immunohistochemistry, astrocyte density; format: in vivo, mouse; conditions: APP/PS1-vehicle vs. WT-vehicle, WT-P33, APP/PS1-P33; whole HC and CTX; 5 mg∙kg^−1 i.p., six months
Procedure: For this study, three-month-old male and female WT and APP/PS1 mice (n = 37) were used. Four groups were defined: WT-vehicle (physiological saline) (male n = 4; female n = 6), WT-P33 (male n = 6; female n = 5), APP/PS1-vehicle (male n = 3; female n = 5), and APP/PS1-P33 (male n = 6; female n = 2). Animals were subjected to intraperitoneal (i.p.) injections of P33 (5 mg∙kg^−1) for five days per week, over a course of six months. The mice were kept in groups under constant temperature (23 ± 0.5 °C), lighting (12-h/12-h light/dark cycle, lights on at 7:00 a.m.), and humidity (~50%). Standard mouse chow and tap water were supplied ad libitum. All behavioral experiments were performed in the light period. Handling was done daily at the same time.
Mice (five animals per group) were anaesthetized with chloral-hydrate (1 mg∙kg^−1) and perfused transcardially with PBS, followed by ice-cold 4% paraformaldehyde. The brains were removed, post-fixed in the same fixative, and immersed in a 30% sucrose solution containing 0.01% sodium-azide. […]
Slides were scanned by a digital slide scanner (Mirax Midi, 3DHistech Ltd., Budapest, Hungary), equipped with a Pannoramic Viewer 1.15.4, CaseViewer 2.1 program and a QuantCenter, HistoQuant module (3DHistech Ltd., Budapest, Hungary). For quantification, all of the sections were analyzed. […] Antibody-positive cell types from the ROIs were counted and quantified. […]

SMILES: C[C@@H](N)C(=O)N1CCC[C@@H]1C(=O)N[C@H](C)C(=O)N1CCC[C@@H]1C(=O)N[C@H](CCC(=O)O)C(N)=O [P33] (HELM PEPTIDE1{[dA].[dP].[dA].[dP].[dE].[am]}$$$$V2.0)
- SYN level, effect (in words) [1]: significant differences were not found between the groups
- density of hyperreactive (GFAP-positive) astrocytes (in words) [2]: higher in the whole HC and CTX of the APP/PS1-vehicle group, than in the other three groups
